Where “and” joins values, the source holds several entries; their conditions need not be identical. Identical values can stand only once.
Assays:
Velvetleaf (VELE) = assay: whole plant or invertebrate; type: in vivo, Abutilon theophrasti; conditions: for inhibition at 140 g/ha: Abutilon theophrasti, iv, 312 h
Corn = assay: Multi-crop greenhouse test, soil-applied (Examples 65, 66; Tables 64, 65); type: in vivo; parameters: inhibition: dose or concentration left out as unconfirmed; conditions: Zea mays; for inhibition at 18 g/ha: Herb. No. 1 0.018 Kg/Ha alone; for inhibition at 70 g/ha: Herb. No. 1 0.07 Kg/Ha alone; for inhibition at 280 g/ha: Herb. No. 1 0.28 Kg/Ha alone
Method in brief: (§1)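 Injury to crops and weeds was rated after granular COUNTER 15G and acetone-delivered safeners were mixed into cover soil over seeded silt loam pans. MON-12000 followed POE 6 days after PPI, with injury read 10 days later. Two replicates.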

grain sorghum (GRSO) = assay: as above; type: in vivo; parameters: inhibition: dose or concentration left out as unconfirmed; conditions: Sorghum; for inhibition at 18 g/ha: Herb. No. 1 0.018 Kg/Ha alone; for inhibition at 70 g/ha: Herb. No. 1 0.07 Kg/Ha alone; for inhibition at 280 g/ha: Herb. No. 1 0.28 Kg/Ha alone
Method in brief: as §1

soybean (SOBE) = assay: as above; type: in vivo; parameters: inhibition: dose or concentration left out as unconfirmed; conditions: Glycine max; for inhibition at 18 g/ha: Herb. No. 1 0.018 Kg/Ha alone; for inhibition at 70 g/ha: Herb. No. 1 0.07 Kg/Ha alone; for inhibition at 280 g/ha: Herb. No. 1 0.28 Kg/Ha alone
Method in brief: as §1

wheat (WHEA) = assay: as above; type: in vivo; parameters: inhibition: dose or concentration left out as unconfirmed; conditions: Triticum aestivum; for inhibition at 18 g/ha: Herb. No. 1 0.018 Kg/Ha alone; for inhibition at 70 g/ha: Herb. No. 1 0.07 Kg/Ha alone; for inhibition at 280 g/ha: Herb. No. 1 0.28 Kg/Ha alone
Method in brief: as §1

Giant foxtail (GIFT) = assay: as above; type: in vivo; parameters: inhibition: dose or concentration left out as unconfirmed; conditions: Setaria faberi; for inhibition at 18 g/ha: Herb. No. 1 0.018 Kg/Ha alone; for inhibition at 70 g/ha: Herb. No. 1 0.07 Kg/Ha alone; for inhibition at 280 g/ha: Herb. No. 1 0.28 Kg/Ha alone
Method in brief: as §1

[1] = Table 64, Herb. No. 1 0.018 Kg/Ha + Biocide No. 1 8.96 Kg/Ha
[2] = Table 64, Herb. No. 1 0.07 Kg/Ha + Biocide No. 1 8.96 Kg/Ha
[3] = Table 64, Herb. No. 1 0.28 Kg/Ha + Biocide No. 1 8.96 Kg/Ha
[4] = Table 65, Herb. No. 1 0.018 Kg/Ha + Biocide No. 1 8.96 Kg/Ha
[5] = Table 65, Herb. No. 1 0.07 Kg/Ha + Biocide No. 1 8.96 Kg/Ha
[6] = Table 65, Herb. No. 1 0.28 Kg/Ha + Biocide No. 1 8.96 Kg/Ha

SMILES: COC(=O)c1c(Cl)nn(C)c1S(=O)(=O)NC(=O)Nc1nc(OC)cc(OC)n1 [Herbicide No. 1, N-[(4,6-dimethoxypyrimidin-2-yl)aminocarbonyl]-3-chloro-4-methoxycarbonyl-5-sulfonamide, reference compound]
- inhibition at 140 g/ha (Velvetleaf (VELE); Herb. No. 1 0.14 kg/Ha alone, PPI, 13 days after planting): 95%
- inhibition at 140 g/ha (Velvetleaf (VELE); Table 51, Herbicide No. 1 0.14 Kg/Ha, where applied Biocide No. 8 8.96 kg/Ha and antidote 4.48 Kg/Ha, all PPI, observed 13 days after treatment): 85%
- inhibition at 140 g/ha (Velvetleaf (VELE); Table 52, Herbicide No. 1 0.14 Kg/Ha, where applied Biocide No. 5 8.96 kg/Ha and antidote 4.48 Kg/Ha, all PPI, observed 13 days after treatment): 85%
- % Inhibition VELE (Velvetleaf (VELE); Herbicide No. 1 0.0175 Kg/Ha PPI alone, Table 19): 85%
- % Inhibition VELE (Velvetleaf (VELE); Herbicide No. 1 0.0175 Kg/Ha PPI alone, Table 20): 80%
- % Inhibition VELE (Velvetleaf (VELE); Herbicide No. 1 0.0175 Kg/Ha PPI alone, Table 21): 80%
- % Inhibition VELE (Velvetleaf (VELE); Herbicide No. 1 0.0175 Kg/Ha PPI alone, Table 22): 85%
- % Inhibition VELE (Velvetleaf (VELE); in vivo): 95% and 90% and 80%
- inhibition (Corn; [1]): 0%
- inhibition at 18 g/ha (Corn; Table 64): 0%
- inhibition (Corn; [2]): 10%
- inhibition at 70 g/ha (Corn; Table 64): 0%
- inhibition (Corn; [3]): 60%
- inhibition at 280 g/ha (Corn; Table 64): 10%
- inhibition (Corn; [4]): 0%
- inhibition at 18 g/ha (Corn; Table 65): 0%
- inhibition (Corn; [5]): 0%
- inhibition at 70 g/ha (Corn; Table 65): 0%
- inhibition (Corn; [6]): 75%
- inhibition at 280 g/ha (Corn; Table 65): 10%
- inhibition (grain sorghum (GRSO); [1]): 0%
- inhibition at 18 g/ha (grain sorghum (GRSO); Table 64): 0%
- inhibition (grain sorghum (GRSO); [2]): 15%
- inhibition at 70 g/ha (grain sorghum (GRSO); Table 64): 0%
- inhibition (grain sorghum (GRSO); [3]): 15%
- inhibition at 280 g/ha (grain sorghum (GRSO); Table 64): 20%
- inhibition (grain sorghum (GRSO); [4]): 15%
- inhibition at 18 g/ha (grain sorghum (GRSO); Table 65): 0%
- inhibition (grain sorghum (GRSO); [5]): 20%
- inhibition at 70 g/ha (grain sorghum (GRSO); Table 65): 40%
- inhibition (grain sorghum (GRSO); [6]): 85%
- inhibition at 280 g/ha (grain sorghum (GRSO); Table 65): 80%
- inhibition (soybean (SOBE); [1]): 5%
- inhibition at 18 g/ha (soybean (SOBE); Table 64): 15%
- inhibition (soybean (SOBE); [2]): 70%
- inhibition at 70 g/ha (soybean (SOBE); Table 64): 45%
- inhibition (soybean (SOBE); [3]): 75%
- inhibition at 280 g/ha (soybean (SOBE); Table 64): 70%
- inhibition (soybean (SOBE); [4]): 0%
- inhibition at 18 g/ha (soybean (SOBE); Table 65): 0%
- inhibition (soybean (SOBE); [5]): 0%
- inhibition at 70 g/ha (soybean (SOBE); Table 65): 0%
- inhibition (soybean (SOBE); [6]): 15%
- inhibition at 280 g/ha (soybean (SOBE); Table 65): 20%
- inhibition (wheat (WHEA); [1]): 0%
- inhibition at 18 g/ha (wheat (WHEA); Table 64): 0%
- inhibition (wheat (WHEA); [2]): 0%
- inhibition at 70 g/ha (wheat (WHEA); Table 64): 0%
- inhibition (wheat (WHEA); [3]): 35%
- inhibition at 280 g/ha (wheat (WHEA); Table 64): 0%
- inhibition (wheat (WHEA); [4]): 0%
- inhibition at 18 g/ha (wheat (WHEA); Table 65): 0%
- inhibition (wheat (WHEA); [5]): 0%
- inhibition at 70 g/ha (wheat (WHEA); Table 65): 0%
- inhibition (wheat (WHEA); [6]): 85%
- inhibition at 280 g/ha (wheat (WHEA); Table 65): 0%
- inhibition (Giant foxtail (GIFT); [1]): 70%
- inhibition at 18 g/ha (Giant foxtail (GIFT); Table 64): 0%
- inhibition (Giant foxtail (GIFT); [2]): 70%
- inhibition at 70 g/ha (Giant foxtail (GIFT); Table 64): 20%
- inhibition (Giant foxtail (GIFT); [3]): 85%
- inhibition at 280 g/ha (Giant foxtail (GIFT); Table 64): 40%
- inhibition (Giant foxtail (GIFT); [4]): 30%
- inhibition at 18 g/ha (Giant foxtail (GIFT); Table 65): 20%
- inhibition (Giant foxtail (GIFT); [5]): 65%
- inhibition at 70 g/ha (Giant foxtail (GIFT); Table 65): 60%
- inhibition (Giant foxtail (GIFT); [6]): 90%
- inhibition at 280 g/ha (Giant foxtail (GIFT); Table 65): 70%
